Experimental data reported in patent US9695240B2, “Anthracycline derivative conjugates, process for their preparation and their use as antitumor compounds” (Genentech, Inc., priority 2008, dated 2017).
“Also recorded” adds a separate entry of the source.

Legend:
tumor models = settings: cited from earlier work
SK-BR-3 cells = assay: CellTiter-Glo in vitro cell proliferation assay, SK-BR-3; format: cell-based
Excerpt: (§1) Cell-based in vitro assays may be used to measure viability, i.e. proliferation (IC50), cytotoxicity (EC50), and induction of apoptosis (caspase activation) of the ADC. The CellTiter-Glo® Luminescent Cell Viability Assay is a commercially available (Promega Corp., Madison, Wis.), homogeneous assay method based on the recombinant expression of Coleoptera luciferase (U.S. Pat. Nos. 5,583,024; 5,674,713; 5,700,670). This cell proliferation assay determines the number of viable cells in culture based on quantitation of the ATP present, an indicator of metabolically active cells (Crouch et al (1993) J. Immunol. Meth. 160:81-88; U.S. Pat. No. 6,602,677). The CellTiter-Glo® Assay is conducted in 96 well format, making it amenable to automated high-throughput screening (HTS) (Cree et al (1995) AntiCancer Drugs 6:398-404). The homogeneous assay procedure involves adding the single reagent (CellTiter-Glo® Reagent) directly to cells cultured in serum-supplemented medium. Cell washing, removal of medium and multiple pipetting steps are not required. The system detects as few as 15 cells/well in a 384-well format in 10 minutes after adding reagent and mixing.
(§2) The in vitro potency of antibody-drug conjugates was measured by a cell proliferation assay (FIGS. 8-29). The CellTiter-Glo® Luminescent Cell Viability Assay is a commercially available (Promega Corp., Madison, Wis.), homogeneous assay method based on the recombinant expression of Coleoptera luciferase (U.S. Pat. Nos. 5,583,024; 5674,713; 5,700,670). This assay determines the number of viable cells in culture based on quantitation of the ATP present, an indicator of metabolically active cells (Crouch et al (1993) J. Immunol. Meth. 160:81-88; U.S. Pat. No. 6,602,677). The CellTiter-Glo® Assay was conducted in 96 well format, making it amenable to automated high-throughput screening (HTS) (Cree et al (1995) AntiCancer Drugs 6:398-404). The homogeneous assay procedure involves adding the single reagent (CellTiter-Glo® Reagent) directly to cells cultured in serum-supplemented medium.
(§3) The homogeneous “add-mix-measure” format results in cell lysis and generation of a luminescent signal proportional to the amount of ATP present. The substrate, Beetle Luciferin, is oxidatively decarboxylated by recombinant firefly luciferase with concomitant conversion of ATP to AMP and generation of photons. Viable cells are reflected in relative luminescence units (RLU). Data can be recorded by luminometer or CCD camera imaging device. The luminescence output is presented as RLU, measured over time. Alternatively, photons from luminescence can be counted in a scintillation counter in the presence of a scintillant. The light units can be represented then as CPS—counts per second.
(§4) Efficacy of ADC were measured by a cell viability assay employing the following protocol, adapted from CellTiter Glo Luminescent Cell Viability Assay, Promega Corp. Technical Bulletin TB288 and Mendoza et al (2002) Cancer Res. 62:5485-5488: • 1. An aliquot of 50 μl of cell culture containing about 1000 or more cells, including: HER2-expressing and CD22-expressing cells, in medium was deposited in each well of a 96-well, opaque-walled, clear bottom plate. • 2. ADC (50 μl) was added to triplicate experimental wells to final concentration of 10 μg/mL, with “no ADC” control wells receiving medium alone, and incubated for 3 or more days. • 3. The plates were equilibrated to room temperature for approximately 30 minutes. • 4. CellTiter-Glo Reagent (100 μl) was added. • 5. The contents were mixed for 2 minutes on an orbital shaker to induce cell lysis. • 6. The plate was incubated at room temperature for 10 minutes to stabilize the luminescence signal. • 7. Luminescence was recorded and reported in graphs as RLU=relative luminescence units.

BT-474 cells = assay: CellTiter-Glo in vitro cell proliferation assay, BT-474; format: cell-based
Excerpt: as §1, §2, §3, §4

MCF7 cells = assay: CellTiter-Glo in vitro cell proliferation assay, MCF7; format: cell-based, human
Excerpt: as §1, §2, §3, §4

[1] = tested on: Burkitt's lymphoma Bjab-luc xenograft tumors; assay: in vivo Bjab-luc xenograft tumor efficacy study; parameters: species or system CB17 SCID mice
Method: The therapeutic effect of the antibody-drug conjugate (ADC) compounds and the improvement of their therapeutic efficacy in comparison with the parent drug, were assessed in animal models of human transplanted tumors. Mice bearing xenografts of human tumors were treated with suitable doses of antibody-drug conjugates, of PNU-159682 free drug, and naked antibody, at certain doses, and the tumor growth was recorded and compared in the different treatment groups. FIGS. 30-32 show the efficacy of the antibody-drug conjugates of Formula Ic by xenograft tumor inhibition in mice.
The efficacy of the antibody-drug conjugates of the invention may be measured in vivo by implanting allografts or xenografts of cancer cells or primary tumors in rodents and treating the tumors with ADC according to the procedures of Example 12. Variable results are to be expected depending on the cell line, the specificity of antibody binding of the ADC to receptors present on the cancer cells, dosing regimen, and other factors. For example, the in vivo efficacy of anti-HER2 ADC may be measured by a high expressing HER2 transgenic explant mouse model. […] Subjects are treated once with ADC and monitored over 3-6 weeks to measure the time to tumor doubling, log cell kill, and tumor shrinkage. Follow up dose-response and multi-dose experiments may be further conducted.
The Bjab-luc (EBV-negative Burkitt's lymphoma, luciferase expressing Bjab cells) tumors express CD22 receptor protein (Polson et al (2009) Cancer Res. 69(6):2358-2364; US 2008/0050310; US 2005/0276812). CD22 is expressed only in the B-cell compartment and on the surface of most NHL cells (D'Arena et al (2000) Am J Hematol. 64:275-81; Olejniczak et al (2006) Immunol Invest. 35:93-114). Efficacy in inhibiting the Bjab-luc xenograft tumor in mice as a model system may predict the clinical response in treating patients with hematopoietic malignancies such as non-Hodgkins lymphoma.
Efficacy studies were performed using SCID mice (Charles River Laboratories). […] When tumor volumes reached 150-200 mm^3 (typically Day 14 to Day 21 after inoculation), the mice were segregated into sample groups of 9-10 mice per group and the tumor volume was determined in each mouse. […] ADC doses were either measured as the mass of the conjugated cytotoxic small molecule drug per surface area of the mouse, or as a constant mass of ADC per mass of the mouse (e.g., 5 mg of ADC/kg mouse). […] Tumor volume was measured using calipers according to the formula: V (mm^3)=0.5A×B^2, where A and B are the long and short diameters, respectively. […] Data collected from each experimental group were expressed as mean±SE.

[2] = tested on: doxorubicin-resistant (DoxRes) HER2 cells; assay: CellTiter-Glo in vitro cell proliferation assay, doxorubicin-resistant HER2; format: cell-based
Excerpt: as §1, §2, §3, §4

[3] = 8.77 ug/kg single iv dose day 0, 48 day study

SMILES: COc1cccc2c1C(=O)c1c(O)c3c(c(O)c1C2=O)C[C@@](O)(C(=O)CO)C[C@@H]3O[C@H]1C[C@H]2[C@H](O[C@@H]3[C@@H](OC)OCCN32)[C@H](C)O1 [PNU-159682, 3′-deamino-3″,4′-anhydro-[2″(S)-methoxy-3″(R)-oxy-4″-morpholinyl]doxorubicin, reference compound]
- antitumor activity in in vivo tumor models, in words (tumor models): effective in vivo tumor models
- SK-BR-3 in vitro cell viability at 3 days, in words (SK-BR-3 cells; brief (1 hr) exposure): effectively inhibited growth
- SK-BR-3 in vitro cell viability at 3 days, anti-proliferative activity in words (SK-BR-3 cells; continuous exposure, 3 days): most potently inhibited; also recorded: caused cytotoxicity at all doses tested
- BT-474 in vitro cell viability at 3 days, in words (BT-474 cells; brief (1 hr) exposure): effectively inhibited growth
- BT-474 in vitro cell viability at 3 days, anti-proliferative activity in words (BT-474 cells; continuous exposure, 3 days): most potently inhibited; also recorded: caused cytotoxicity at all doses tested
- MCF7 in vitro cell viability at 3 days, in words (MCF7 cells; brief (1 hr) exposure): effectively inhibited growth
- MCF7 in vitro cell viability at 3 days, anti-proliferative activity in words (MCF7 cells; continuous exposure, 3 days): most potently inhibited; also recorded: caused cytotoxicity at all concentrations tested
- CR-complete tumor regression [1, 3]: 0
- PR-partial tumor regression [1, 3]: 0
- TI-tumor incidence [1, 3]: 9/9
- tumor growth inhibition in Bjab-luc xenograft, in words ([1]; single dosing on day 0, doses of FIG. 30): no effect on tumor growth
- DoxRes HER2 in vitro cell viability at 3 days, in words ([2]; brief (1 hr) exposure): effectively inhibited growth
- DoxRes HER2 in vitro cell viability at 3 days, anti-proliferative activity in words ([2]; continuous exposure, 3 days): most potently inhibited; also recorded: inhibited growth at all concentrations tested
